{
  "source": "patent US20060009425A1",
  "about": "“Oral formulations of paricalcitol” (priority 2004, published 2006)",
  "key": {"[1]": {"test_system": "serum parathyroid hormone (PTH) levels", "assay": "Phase 3 placebo-controlled TIW study, iPTH reduction (Example 6)", "format": "in vivo, human", "description": "Methodology: This was a Phase 3, prospective, randomized, placebo-controlled, double-blind, 24-week Treatment Phase, multi-center study in CKD (Stages 3 and 4) subjects with elevated PTH levels (≧150 pg/mL). Subjects were randomized in an equal ratio (1:1) to 1 of 2 treatment groups: Paricalcitol Capsule (Group 1) and placebo (Group 2). Potential subjects underwent procedures to determine their baseline intact PTH (iPTH), calcium, and phosphorus levels for eligibility to receive treatment.\nThe study was performed in 4 parts: a Screening Visit, a Pre-Treatment Phase, a Treatment Phase, and a Follow-Up Phase. At the Screening Visit, subjects reviewed and signed the informed consent form prior to the conduct of any study-specific screening procedures. A spot urine sample was used to calculate calcium/creatinine ratio. A blood sample was drawn for iPTH, blood urea nitrogen (BUN), albumin and serum creatinine levels. […] The serum creatinine, BUN, and albumin values were used to calculate the subject's estimated glomerular filtration rate (eGFR) using a formula derived from the “Modification of Diet in Renal Disease” (MDRD) study. Subjects with a calculated eGFR of 15 to 60 mL/min were eligible to undergo Pre-Treatment Phase procedures. The Pre-Treatment Phase was 1 to 4 weeks. During this phase, subjects had 2 scheduled office visits. The office visits could have occurred at any time over a 4-week period but must have been at least 1 day apart. During these visits, subjects were to meet laboratory criteria regarding serum iPTH, calcium, and phosphorus levels. If the subject was unable to meet these criteria, he or she may have been re-screened once after 4 weeks. […] Subjects who satisfied inclusion and exclusion criteria after a minimum of 1 week in the Pre-Treatment Phase were eligible to enter the Treatment Phase. During the Treatment Phase, subjects were to self-administer study drug 3 times weekly, on Monday, Wednesday and Friday, for a total of 24 weeks. The initial dose was 2 or 4 mcg (depending on baseline iPTH levels). Procedures to be performed during the Treatment Phase included vital signs, chemistry and hematology, urinary pyridinoline, urinary deoxypyridinoline, serum bone-specific alkaline phosphatase, serum osteocalcin, urinalysis, spot urine for calcium/creatinine ratio, and recording of adverse events and concurrent medications. Serum iPTH, calcium, phosphorus, and albumin were measured every 2 weeks. Dose adjustments were to be made according to these chemistry results for iPTH, calcium, and phosphorus. Doses may have been increased in 2 mcg increments every 4 weeks. Dose reductions were to occur according to a protocol-specified algorithm. However, dosing could have been adjusted any time if, in the judgment of the Investigator, a risk to subject safety existed.\nEfficacy: The primary efficacy endpoint was the achievement of 2 consecutive >30% decreases from baseline iPTH levels.\nThe secondary efficacy analyses include change and percent change from baseline analyses in iPTH and change from baseline analyses in biochemical bone activity markers.\nThe Intent-To-Treat population (Full Analysis Set) was defined as all randomized subjects with a baseline iPTH and at least 2 on-treatment iPTH measurements. This population was used in the primary efficacy analysis."}, "[2]": {"assay": "Bioavailability of capsule vs intravenous formulation, end-stage CKD on continuous peritoneal dialysis (Example 9)", "format": "in vivo", "settings": "human, plasma, 0.24 μg/kg; for half-life: CPD, read-out: harmonic mean of the terminal elimination half-life (converted)", "method": "Methodology: This was a Phase I, open-label, randomized, single-dose, two-period, crossover, nonfasting study. Subjects were randomized into two sequence groups of\nFormulations A and B. The two nonfasting study administrations were: […]\nThe strengths of the capsule formulations were 0.5, 1, 2 or 4 μg.\nThe intravenous formulation contained 2-10 micrograms/milliliter of paricalcitol, 30% (v/v) propylene glycol, 20% (v/v) ethanol and 50% (v/v) water.\nBoth formulations were administered immediately after CPD exchange in the morning, 30 minutes after breakfast was served. Phosphate binders, commonly used in the management of end-stage renal disease, were withheld 8 hours prior to and 2 hours after the drug administration. A washout interval of at least 7 days separated the doses of the two study periods.\nPlasma concentrations of paricalcitol were determined using a validated HPLC-tandem mass spectrometric assay method at Abbott Laboratories, Abbott Park, Ill. The lower limit of quantitation of paricalcitol was 0.02 ng/mL using 0.6 mL of plasma.\nPharmacokinetic: The pharmacokinetic parameter values of paricalcitol were estimated using noncompartmental methods. These included: Cmax, t1/2, AUC0-t, AUC0-∞, CL, CL/F, Tmax, Vdβ and Vdβ/F, as described in the last example.\nStatistical Methods: An analysis of variance (ANOVA) was performed for β and the logarithms of Cmax, AUC0-t and AUC0-∞. […] The number and percentage of subjects reporting adverse events were tabulated by COSTART term and body system. Laboratory values outside the reference ranges were flagged and evaluated for clinical significance."}, "[3]": {"test_system": "serum and urine pharmacodynamic markers", "assay": "Serum and urine pharmacodynamic markers, moderate to severe renal impairment (Example 4)", "procedure": "Blood samples for paricalcitol assay were collected by venipuncture into 7 mL evacuated EDTA-containing collection tubes within 5 minutes prior to dosing (0 hour) and at 0.5, 1, 2, 3, 4, 6, 8, 12, 24, 36, and 48 hours after dosing on Study Days 1 and 8. Sufficient blood was collected to provide approximately 2.5 mL plasma from each sample. In addition, urine was collected for 48 hours following Study Day 1 dosing. Serum and urine pharmacodynamic markers, were measured at selected time points in the study. Also, a 24 hr urine amount of urine pharmacodynamic markers were measured following paricalcitol dose on Study Days 1 and 8.\nPharmacodynamic: Serum pharmacodynamic markers [serum calcium, calcium-phosphorus product (Ca×P), serum phosphorus, serum bone specific alkaline phosphatase (AP), serum osteocalcin, serum C-terminal telopeptide of collagen (CTx), serum tartarate resistant acid phosphatase-type 5b (TRAP-5b), intact (iPTH) and whole PTH] were measured from samples collected immediately prior to dosing on Study Days 1, 3, 5, and 8. One additional sample was collected 48 hours following the Study Day 8 dose (on the morning of Study Day 10). Urine pharmacodynamic markers [calcium, creatinine and deoxy-pyridinoline (DPD)] were measured from samples collected immediately prior to dosing on Study Days 1 and 8, and during the intervals 0 to 4, 4 to 8, 8 to 12, and 12 to 24 hours after dosing on Study Days 1 and 8. In addition, these markers were measured using the first morning void sample on Study Days 3, 5, and 10.\nPharmacodynamic: Two-sample t-tests were performed to compare baseline pharmacodynamic marker values between the two renal impairment groups. For improving the normality of the distribution of the baseline values, natural logarithm transformations were made to all the pharmacodynamic markers except for the urine calcium and urine creatinine. The relationship between the % change from Study Day 1 to Study Day 10 and the Study Day 1 paricalcitol AUC0-∞ was investigated using linear regression. The Study Day 1 AUC0-∞ and the corresponding baseline value were independent variables. A one-sample t-test was performed for each group on the change from Study Day 1 to Study Day 8 in 24-hour amount of urine calcium and creatinine."}, "[4]": {"settings": "moderate and severe renal impairment groups, supra-pharmacologic fixed doses, 1-week study"}, "[5]": {"settings": "moderate renal impairment, Study Day 1"}, "[6]": {"settings": "moderate renal impairment, Study Day 8"}, "[7]": {"settings": "severe renal impairment, Study Day 1"}, "[8]": {"settings": "severe renal impairment, Study Day 8"}},
  "note": "Read-outs that look alike come from different tables or passages of the source.",
  "data": [
    {"smiles": "C[C@H](/C=C/[C@H](C)C(C)(C)O)[C@H]1CC[C@H]2/C(=C/C=C3C[C@@H](O)C[C@H](O)C3)CCC[C@]12C", "note": "[Paricalcitol, 19-nor-1α,3β,25-trihydroxy-9,10-secoergosta-5(Z); 7(E),22(E)-triene]", "values": [
      {"measurement": "subjects with 4 consecutive ≧30% decreases from baseline in iPTH", "setting": "[1]; 26/36, exploratory analysis", "result": 72, "unit": "%"},
      {"measurement": "subjects with 2 consecutive >30% decreases from baseline in iPTH", "setting": "[1]; 33/36, TIW, 24 weeks, CKD Stages 3 and 4", "result": 92, "unit": "%"},
      {"measurement": "30% mean reduction in iPTH occurred by", "setting": "[1]; TIW", "result": "≤ 9", "unit": "Week"},
      {"measurement": "mean change from baseline in iPTH at the Final Visit", "setting": "[1]; TIW, 24 weeks", "result": -58.1, "unit": "pg/mL"},
      {"measurement": "mean change from baseline in iPTH at the Last On-Treatment Visit", "setting": "[1]; TIW, 24 weeks", "result": -95.7, "unit": "pg/mL"},
      {"measurement": "percent decrease in iPTH at the Final Visit", "setting": "[1]; TIW, 24 weeks", "result": 19.2, "unit": "%"},
      {"measurement": "percent decrease in iPTH at the Last On-Treatment Visit", "setting": "[1]; TIW, 24 weeks", "result": 33.0, "unit": "%"},
      {"measurement": "maximum decrease from baseline in iPTH", "setting": "[1]; observed at Week 19", "result": "−46.0", "unit": "%"},
      {"measurement": "half-life", "setting": "[2]; following intravenous administration", "result": "~900", "unit": "min"},
      {"measurement": "half-life", "setting": "[2]; following oral administration", "result": "~1080", "unit": "min"},
      {"measurement": "bioavailability", "setting": "[2]; single oral dose of capsule formulation, end-stage renal disease on CPD, read-out: absolute bioavailability", "result": 86.1, "unit": "%"},
      {"measurement": "PTH levels", "setting": "[3]; [4]", "result": "significant decrease"},
      {"measurement": "calcium, phosphorus, Ca×P levels", "setting": "[3]; [4]", "result": "increases"},
      {"measurement": "Ca/Creatinine, urine over 24 hours after dose", "setting": "[3]; [5]", "result": "0.045 ± 0.051"},
      {"measurement": "Calcium, total amount excreted in urine over 24 hours after dose", "setting": "[3]; [5]", "result": "49.39 ± 56.85", "unit": "mg"},
      {"measurement": "Creatinine, total amount excreted in urine over 24 hours after dose", "setting": "[3]; [5]", "result": "1326.7 ± 566.1", "unit": "mg"},
      {"measurement": "DPD, total amount excreted in urine over 24 hours after dose", "setting": "[3]; [5]", "result": "52.03 ± 18.96", "unit": "nmol"},
      {"measurement": "Ca/Creatinine, urine over 24 hours after dose", "setting": "[3]; [6]", "result": "0.074 ± 0.078"},
      {"measurement": "Calcium, total amount excreted in urine over 24 hours after dose", "setting": "[3]; [6]", "result": "79.24 ± 63.27", "unit": "mg"},
      {"measurement": "Creatinine, total amount excreted in urine over 24 hours after dose", "setting": "[3]; [6]", "result": "1324.4 ± 402.0", "unit": "mg"},
      {"measurement": "DPD, total amount excreted in urine over 24 hours after dose", "setting": "[3]; [6]", "result": "58.60 ± 16.45", "unit": "nmol"},
      {"measurement": "24-hour urinary excretion of calcium", "setting": "[3]; repeated dosing", "result": "does not affect"},
      {"measurement": "Ca/Creatinine, urine over 24 hours after dose", "setting": "[3]; [7]", "result": "0.028 ± 0.019"},
      {"measurement": "Calcium, total amount excreted in urine over 24 hours after dose", "setting": "[3]; [7]", "result": "29.18 ± 20.97", "unit": "mg"},
      {"measurement": "Creatinine, total amount excreted in urine over 24 hours after dose", "setting": "[3]; [7]", "result": "1088.3 ± 278.6", "unit": "mg"},
      {"measurement": "DPD, total amount excreted in urine over 24 hours after dose", "setting": "[3]; [7]", "result": "48.34 ± 21.04", "unit": "nmol"},
      {"measurement": "Calcium, total amount excreted in urine over 24 hours after dose", "setting": "[3]; [8]", "result": "50.92 ± 41.18", "unit": "mg"},
      {"measurement": "DPD, total amount excreted in urine over 24 hours after dose", "setting": "[3]; [8]", "result": "47.74 ± 20.47", "unit": "nmol"}
    ]}
  ]
}
